The source of these data is patent publication US20230079107A1, “COMPOSITIONS AND METHODS FOR THE TREATMENT OF HUMAN IMMUNODEFICIENCY VIRUS” (Cidara Therapeutics, Inc., priority 2019, published 2023).

Format in all cases: cell-based
One series is described as follows: in vitro. Also noted: TC50: unit not given beside the values. The settings on record: human. The method, then:
(§1) In these studies, cytotoxicity was also evaluated (TC50). Test materials were derived by measuring the reduction of the tetrazolium dye XTT (2,3-bis(2-methoxy-4-nitro-5-sulfophenyl)-5-[(phenylamino)carbonyl]-2H-tetrazolium hydroxide). XTT in metabolically active cells is metabolized by the mitochondrial enzyme NADPH oxidase to a soluble formazan product. XTT solution was prepared daily as a stock of 1 mg/mL in RPMI-1640 without additives. Phenazine methosulfate (PMS) solution was prepared at 0.15 mg/mL in DPBS and stored in the dark at −20° C. XTT/PMS stock was prepared immediately before use by adding 40 μL of PMS per mL of XTT solution. 50 μL of XTT/PMS was added to each well of the plate and the plate incubated for 4 hours at 37° C. The 4 hour incubation has been empirically determined to be within the linear response range for XTT dye reduction with the indicated numbers of cells for each assay. The plates were sealed and inverted several times to mix the soluble formazan product and the plate was read at 450 nm (650 nm reference wavelength) with a Molecular Devices SpectraMax Plus 384 96 well plate format spectrophotometer.
as §1, with “Fifty L (50 μL)” for “50 μL”
as §1, with “studies” for “studies,”, “Fifty L (50 μL)” for “50 μL”
(§2) In these studies, cytotoxicity was also evaluated (TC50). Test materials were derived by measuring the reduction of the tetrazolium dye XTT (2,3-bis(2-methoxy-4-nitro-5-sulfophenyl)-5-[(phenylamino)carbonyl]-2H-tetrazolium hydroxide). XTT in metabolically active cells is metabolized by the mitochondrial enzyme NADPH oxidase to a soluble formazan product. XTT solution was prepared daily as a stock of 1 mg/mL in RPMI-1640 without additives.

For series [1], the target named is cell-cell fusion of HeLa-CD4-LTR-β-Gal and HL2/3 cells mediated by gp120 and CD4 interaction (UniProt P04578).
The test system of series [2] is HeLa-CD4-LTR-β-Gal and HL2/3 cells (cell viability). The experiment in a line: in vitro. The following applies: Example 36, Table 9, XTT. On the set-up: TC50: unit not given beside the values. As for the experimental part: as §1
as §1, with “Fifty L (50 μL)” for “50 μL”
as §1, with “studies” for “studies,”, “Fifty L (50 μL)” for “50 μL”
as §2

The mark [3] stands for this setting: Example 19, Table 6, Run 2, XTT, read-out: TC50 [μM] Run 2.
The mark [4] stands for this setting: Example 33, Table 7, XTT, read-out: TC50 (nM) (Tox).
[5] abbreviates: Example 19, Table 6, Run 3, XTT, read-out: TC50 [μM] Run 3.
[6] abbreviates: Example 11, Table 5, XTT, read-out: TC50 (the source's name).
Setting [7] is: Example 19, Table 6, Run 1, XTT, read-out: TC50 [μM] Run 1.

Like-named read-outs stand apart in the source and are kept apart here.

Consider `C#CCOCCOCCOCCOCC(O)CNC(=O)c1nc(-c2ncc(OC)c3c(C(=O)C(=O)N4CCC(=C(C#N)c5ccccc5)CC4)c[nH]c23)cs1` (stereo not shown) [Int-4], for which, in the series “in vitro” (setting [3]), the CC50 was > 10 µM. In addition, the “fusion inhibition activity, in words” value in series [1] is recorded as “highly active”. In the case of `C#CCOCCOCCOCCOCCN1CCN(CCCN2CCN(CCNC(=O)c3ncn(-c4ncc(OC)c5c(C(=O)C(=O)N6CCC(=C(C#N)c7ccccc7)CC6)c[nH]c45)n3)CC2)CC1` [Int-19], the CC50 in “in vitro” (setting [4]) was > 0.5 µM. On the same count and under the same terms, in the case of `C#CCOCCOCCOCCOCCNC(=O)c1ncn(-c2ncc(OC)c3c(C(=O)C(=O)N4CCN(C(=O)c5ccccc5)CC4)c[nH]c23)n1` [Int-20] it was > 0.5 µM. Regarding `C#CCOCCOCCOCCOCCC(=O)N(CC(=O)NCCOCCOCCOCCOCCOCCOCCOCCOCCOCCOCCOCCOC)CC(=O)NCCn1cc(COCCOCCOCCOCCNC(=O)c2ncn(-c3ncc(OC)c4c(C(=O)C(=O)N5CCC(=C(C#N)c6ccccc6)CC5)c[nH]c34)n2)nn1` [Int-25], the TC50 in series [2] is >2000. In addition, the CC50 in “in vitro” (setting [4]) is > 0.5 µM.

On to `C#CCOCCOCCOCCOCCNC(=O)c1cn(-c2ncc(OC)c3c(C(=O)C(=O)N4CCC(=C(C#N)c5ccccc5)CC4)c[nH]c23)nn1` [Int-13], for which the CC50 in “in vitro” (setting [5]) is > 10 µM. The same measure, in the same setting: for `C#CCOCCOCCOCCOCCC(=O)N(CCCNC(=O)CCOCCNC(=O)c1ncn(-c2ncc(OC)c3c(C(=O)C(=O)N4CCC(=C(C#N)c5ccccc5)CC4)c[nH]c23)n1)C(CO)(CO)CO` [Int-12] the value was > 10 µM. Take `COc1cnc(-n2cnc(COCC(=O)NCCOCCOCCOCCOCCOCCON)n2)c2[nH]cc(C(=O)C(=O)N3CCN(C(=O)c4ccccc4)CC3)c12` [Int-6]: the CC50 in “in vitro” (setting [6]) and in the series “in vitro” (setting [7]) was > 0.5 µM in each case. Regarding `C#CCOCCOCCOCCOCCC(=O)NCc1ncn(-c2ncc(OC)c3c(C(=O)C(=O)N4CCN(C(=O)c5ccccc5)CC4)c[nH]c23)n1` [Int-7], the CC50 in the series “in vitro” (setting [6]) and in “in vitro” (setting [7]) was > 0.5 µM in each case. On to `C#CCOCCOCCOCCOCCN(CCCO)CCCN(CCCO)CCCNC(=O)c1ncn(-c2ncc(OC)c3c(C(=O)C(=O)N4CCC(=C(C#N)c5ccccc5)CC4)c[nH]c23)n1` [Int-26], for which the TC50 in series [2] is listed as >2000. As to `C#CCOCCOCCOCCOCCNC(=O)c1nc(-c2ncc(OC)c3c(C(=O)C(=O)N4CCC(=C(C#N)c5ccccc5)CC4)c[nH]c23)cs1` [Int-1], the CC50 in the series “in vitro” (setting [6]) and in the series “in vitro” (setting [7]) was > 10 µM throughout. For the molecule `C#CCOCCOCCOCCOCCC(=O)N(CCCNC(=O)c1ncn(-c2ncc(OC)c3c(C(=O)C(=O)N4CCC(=C(C#N)c5ccccc5)CC4)c[nH]c23)n1)CCS(=O)(=O)O` [Int-15], the CC50 in the series “in vitro” (setting [5]) was > 10 µM. Turning to enfuvirtide, the TC50 in series [2] is >1,000. Moreover, the CC50 in the series “in vitro” (setting [4]) is > 1 µM. With `C#CCOCCOCCOCCOCCNC(=O)COCc1ncn(-c2ncc(OC)c3c(C(=O)C(=O)N4CCN(C(=O)c5ccccc5)CC4)c[nH]c23)n1` [Int-5], the CC50 in “in vitro” (setting [6]) and in the series “in vitro” (setting [7]) was > 0.5 µM in each case. As to `C#CCOCCOCCOCCOCCN1CCN(CCCN2CCN(CCCNC(=O)c3ncn(-c4ncc(OC)c5c(C(=O)C(=O)N6CCC(=C(C#N)c7ccccc7)CC6)c[nH]c45)n3)CC2)CC1` [Int-22], the TC50 in series [2] is recorded as >2000. Moreover, in the series “in vitro” (setting [4]), the CC50 is > 0.5 µM.

In the case of `COc1cc(-c2ccc(/N=N/c3ccc4c(S(=O)(=O)O)cc(S(=O)(=O)O)c(N)c4c3O)c(OC)c2)ccc1/N=N/c1ccc2c(S(=O)(=O)O)cc(S(=O)(=O)O)c(N)c2c1O` [CSB, Chicago Sky Blue, reference compound], the CC50 in the series “in vitro” (setting [6]), in “in vitro” (setting [7]), in the series “in vitro” (setting [3]), in “in vitro” (setting [5]) and in “in vitro” (setting [4]) was > 10 µM in each case. Consider `C#CCOCCOCCOCCOCCC(=O)N[C@@H](CS(=O)(=O)O)C(=O)N1CCN(CCNC(=O)c2ncn(-c3ncc(OC)c4c(C(=O)C(=O)N5CCC(=C(C#N)c6ccccc6)CC5)c[nH]c34)n2)CC1` [Int-14], for which the CC50 in “in vitro” (setting [5]) was > 10 µM.

Turning to `C#CCOCCOCCNC(=N)NCCNC(=O)c1csc(-c2ncc(OC)c3c(C(=O)C(=O)N4CCC(=C(C#N)c5ccccc5)CC4)c[nH]c23)n1` [Int-3], the CC50 in “in vitro” (setting [6]) and in the series “in vitro” (setting [7]) was > 10 µM throughout. `C#CCOCCOCCOCCC1CCN(CCNC(=O)c2ncn(-c3ncc(OC)c4c(C(=O)C(=O)N5CCC(=C(C#N)c6ccccc6)CC5)c[nH]c34)n2)CC1` [Int-11]: the CC50 in the series “in vitro” (setting [7]) was > 10 µM. In the case of `C#CCOCCOCCOCCOCCOc1cnc(-n2cnc(C)n2)c2[nH]cc(C(=O)C(=O)N3CCN(C(=O)c4ccccc4)CC3)c12` [Int-8], the CC50 in “in vitro” (setting [6]) and in “in vitro” (setting [7]) was > 10 µM throughout. In the case of `C#CCOCCOCCOCCOCCNC(=O)c1csc(-c2ncc(OC)c3c(C(=O)C(=O)N4CCN(C(=O)c5ccccc5)CC4)c[nH]c23)n1` [Int-9], the CC50 in the series “in vitro” (setting [6]) and in “in vitro” (setting [7]) was > 10 µM each time. Turning to `C#CCOCCOCCOCCOCCNC(=O)c1ncn(-c2ncc(OC)c3c(C(=O)C(=O)N4CCC(=C(C#N)c5ccccc5)CC4)c[nH]c23)n1` [Int-2], the CC50 in “in vitro” (setting [3]) and in “in vitro” (setting [5]) was > 10 µM each time. The “fusion inhibition activity, in words” value in series [1] is “highly active”.

`C#CCOCCOCCOCCOCCN1CCN(CCNC(=O)c2ncn(-c3ncc(OC)c4c(C(=O)C(=O)N5CCC(=C(C#N)c6ccccc6)CC5)c[nH]c34)n2)CC1` [Int-16]: the CC50 in the series “in vitro” (setting [5]) was > 10 µM. As to `C#CCOCCOCCOCCOCCC(=O)N(CCCNC(=O)c1ncn(-c2ncc(OC)c3c(C(=O)C(=O)N4CCC(=C(C#N)c5ccccc5)CC4)c[nH]c23)n1)C(CO)(CO)CO` [Int-17], the CC50 in “in vitro” (setting [5]) was > 10 µM; in the series “in vitro” (setting [4]), > 0.5 µM. As to `C#CCOCCOCCOCCOCCN1CCN(CCCNC(=O)c2ncn(-c3ncc(OC)c4c(C(=O)C(=O)N5CCC(=C(C#N)c6ccccn6)CC5)c[nH]c34)n2)CC1` [Int-27], the TC50 in series [2] is listed as >2000. In the case of `C#CCOCCOCCOCCOCCN1CCN(CCCNC(=O)c2ncn(-c3ncc(OC)c4c(C(=O)C(=O)N5CCC(=C(C#N)c6ccccc6)CC5)c[nH]c34)n2)CC1` [Int-18], in series [2], the TC50 was >2000. Besides, the CC50 in “in vitro” (setting [4]) was > 0.5 µM.

For `C#CCOCCOCCNC(=N)NCCNC(=O)c1csc(-c2ncc(OC)c3c(C(=O)C(=O)N4CCN(C(=O)c5ccccc5)CC4)c[nH]c23)n1` [Int-10], the CC50 in the series “in vitro” (setting [6]) and in the series “in vitro” (setting [7]) was > 10 µM throughout.
